One may read the MBC as the smallest concentration meeting the test's criterion for killing.

The record followed here is article PMC7606276, “The Antibacterial Effects of New N-Alkylpyridinium Salts on Planktonic and Biofilm Bacteria” (Frontiers in Microbiology, 2020).

Assay [1] has as its system Enterococcus faecalis DSM 16431. Nature of the assay: MBC of planktonic E. faecalis at different initial bacterial densities. The format is cell-based. The procedure:
The antibacterial susceptibility of planktonic bacteria was determined by the broth microdilution method according to the standard M07-A1 ([CLSI, 2018]) and optimized as described previously ([Marek et al., 2015]; [Dolezal et al., 2016]). All antibacterial compounds were dissolved in dimethyl sulfoxide (DMSO p.a., Sigma-Aldrich, Prague, Czechia). The wells of the 96-well microtiter plates contained 200 μL of Mueller-Hinton broth (MHB, HiMedia, Cadersky-Envitek, Prague, Czechia) with two-fold serial dilutions of the QACs (500–0.49 μmol/L) and were inoculated with 10 μL of exponentially grown bacterial suspension adjusted densitometrically to match 0.5 McFarland scale. […] The MBCs were determined for all prepared compounds as the concentrations that provided ≥99.9% decrease in the bacterial number after subculture of 10 μL aliquots from each microtiter well in a corresponding new microtiter plate where each well contained 200 μL of fresh MHB. The MBC was determined as the lowest concentration which corresponded to a well without visible bacterial growth after a further 24 h of incubation at 35 ± 1°C. To ensure that no bacteria had survived, the content of the well was inoculated on an agar plate to confirm the absence of bacterial growth.
To evaluate the effect of bacterial density on the antibacterial activity of the QACs, E. faecalis suspensions from an overnight culture were prepared in the range from 10^6 to 10^10 CFU/mL in Brain Heart Infusion broth (BHI, VWR International BVBA, Leuven, Belgium) by either diluting or concentrating bacterial suspensions. The MBCs corresponding to E. faecalis suspensions with different initial bacterial densities were determined only for the compound A14 in the concentration range between 500 and 0.49 μM prepared by 2-fold serial dilutions. The MBCs were evaluated as described above after the bacteria were exposed to the QACs for 3 min, 60 min or 24 h. The growth rate of tested E. faecalis suspensions at different initial bacterial densities was monitored every 30 min during 7 h of incubation by measuring the optical density (OD600). The values were fitted with the logistic equation

In assay [2] the test system is E. faecalis biofilms on titanium surface. Nature of the assay: Biofilm susceptibility assay, live/dead staining CLSM. The class given is cell-based, Enterococcus faecalis. The note with it: 250 μM. The procedure: To grow the biofilms, an overnight culture of E. faecalis (average viable bacterial concentration of 1 × 10^8 CFU/ml) was diluted 100-fold in BHI. E. faecalis biofilms were formed on titanium radial disks (commercially pure titanium, grade 2) with 7 mm diameter and 1 mm thickness. Prior to the experiments all disks were sandblasted (FerroEcoBlast Europe; Microblast ceramic beads B120) to expose fresh titanium surface, cleaned in 70% ethanol and autoclaved at 134°C for 20 min. The biofilms were grown for 3 days at 37°C ± 1°C without shaking or changing of media to achieve a surface coverage of approximately 25% and a surface bacterial density of ∼1.5 × 10^11 bacteria […]. Biofilms grown on a titanium surface were exposed to 1.5 ml of A14, B14, and C14 dissolved in BHI for 1, 3, and 60 min. After treatment the individual disks were rinsed with saline solution to remove QACs as well as unattached bacteria. In laser treated biofilms samples were treated with QACs for 1 min followed by 10 s of Er:YAG – SSP laser treatment. The LightWalker Er:YAG (Fotona, Ljubljana, Slovenia) was set with the following parameters: laser wavelength 2940 nm; contact handpiece H14, Flat Sweeps fiber tip 400/14 positioned 5 mm above the biofilm disk, energy 20 mJ, frequency 15 Hz, water off, air off, single pulse modality – SSP (super short pulse – 50 μs). The titanium disks with their biofilm were positioned at the bottom of cylindrical irrigation system (7.5 mm diameter and 2 cm high) in the presence of 1.5 ml of either saline or the QAC dissolved in BHI. The antibacterial concentration was 250 μM which was the highest soluble QAC concentration in BHI broth. The rinsed biofilms were stained with 5 μL of premixed saline-diluted Syto 9 and propidium iodide stock solutions (1: 300) from LIVE/DEAD^TM BacLight^TM Bacterial Viability Kit L7012 (Thermo Fisher Scientific, Eugene, OR, United States). After 5 min of incubation in the dark the samples were observed by fluorescence microscope Zeiss Axio Observer Z1 equipped with confocal unit LSM 800 (CLSM). Z-stacks and tiles were taken at 100× or 20× magnification at three randomly selected view fields. Image acquisition and control of the microscope were performed with ZEN 2.3 (ZEISS GmbH, Germany). For the 100× magnification, blue 488 nm and yellow 561 nm lasers were set to 1% intensity, GaAsP PMT detectors to 700 V, pinhole to 71 μm, and the size of the acquired 8-bit images was 3476 × 3476 pixels. For the 20× magnification, blue 488 nm and yellow 561 nm lasers were set to 0.85% intensity, GaAsP PMT detectors to 700 V, pinhole to 50 μm and the size of acquired 8-bit images was 1306 × 1306 pixels. The typical Z-step of the Z-stack was 1 μm for 100× magnification and 3.26 μm for 20× magnification. The images were composed of four different view fields. A custom script was written (Image J) and used to evaluate the effect of treatment on the fraction of dead cells and biofilm surface coverage.

The structures appear in SMILES notation. Read-outs that look alike come from different tables or passages of the source.

`CCCCCCCCCCCCCC[n+]1ccccc1` [Compound A14]: the minimum bactericidal concentration (MBC) is 63 µM in assay [1] (DSM16431, 0.05 h, 3 min exposure, initial CFU/mL 10^6, read-out: MBC 3 min); 63 µM in assay [1] (DSM16431, 0.05 h, 3 min exposure, initial CFU/mL 10^7, read-out: MBC 3 min); 31 to 63 µM in assay [1] (DSM16431, 0.05 h, 3 min exposure, initial CFU/mL 10^8, read-out: MBC 3 min); 250 µM in assay [1] (DSM16431, 0.05 h, 3 min exposure, initial CFU/mL 10^9, read-out: MBC 3 min); over 250 µM in assay [1] (DSM16431, 0.05 h, 3 min exposure, initial CFU/mL 10^10, read-out: MBC 3 min); 31 µM in assay [1] (DSM16431, 1 h, 60 min exposure, initial CFU/mL 10^6, read-out: MBC 60 min). Further, the MBC was 31 µM in assay [1] (DSM16431, 1 h, 60 min exposure, initial CFU/mL 10^7, read-out: MBC 60 min); 63 µM in assay [1] (DSM16431, 1 h, 60 min exposure, initial CFU/mL 10^8, read-out: MBC 60 min); 125 µM in assay [1] (DSM16431, 1 h, 60 min exposure, initial CFU/mL 10^9, read-out: MBC 60 min); 250 µM in assay [1] (DSM16431, 1 h, 60 min exposure, initial CFU/mL 10^10, read-out: MBC 60 min); 16 to 31 µM in assay [1] (DSM16431, 24 h, 24 h exposure, initial CFU/mL 10^6, read-out: MBC 24 h); 16 to 31 µM in assay [1] (DSM16431, 24 h, 24 h exposure, initial CFU/mL 10^7, read-out: MBC 24 h). Further, the MBC in assay [1] (DSM16431, 24 h, 24 h exposure, initial CFU/mL 10^8, read-out: MBC 24 h) was 31 µM; in assay [1] (DSM16431, 24 h, 24 h exposure, initial CFU/mL 10^9, read-out: MBC 24 h), 31 to 63 µM; in assay [1] (DSM16431, 24 h, 24 h exposure, initial CFU/mL 10^10, read-out: MBC 24 h), 250 µM; in assay [1] (DSM16431, 24 h, after 24 h, 10^6 CFU/ml initial bacterial density, read-out: relative MBC value per bacterial cell), 2.1e-05 µM; in assay [1] (DSM16431, 24 h, after 24 h, 10^10 CFU/ml initial bacterial density, read-out: relative MBC value per bacterial cell), 2.7e-08 µM. In addition, the “biofilm surface coverage change during the treatment” value in assay [2] (1, 3 and 60 min of treatment) was “did not change significantly”. Besides, the “proportion of live cells in biofilm” value in assay [2] (after 60 min of treatment) came out at 18%.
